Series [1] addresses T1, S. typhimurium OMP synthase (orotate phosphoribosyltransferase) (Salmonella enterica, UniProt P08870).
T1 sequence (P08870 2-213): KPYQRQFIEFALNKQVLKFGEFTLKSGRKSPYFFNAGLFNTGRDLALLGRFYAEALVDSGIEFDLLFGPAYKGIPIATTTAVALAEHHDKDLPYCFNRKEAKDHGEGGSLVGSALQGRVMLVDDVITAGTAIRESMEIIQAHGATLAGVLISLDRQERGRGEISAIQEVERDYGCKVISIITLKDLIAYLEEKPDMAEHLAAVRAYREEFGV
Nature of the series: equilibrium binding by centrifugal filtration.

Series [2] concerns the target S. typhimurium OMP synthase (orotate phosphoribosyltransferase) (Salmonella enterica, UniProt P08870, E101A). Description: biochemical.
The target of series [3] is S. typhimurium OMP synthase (orotate phosphoribosyltransferase) (Salmonella enterica, UniProt P08870, H105A). Nature of the series: biochemical.
Series [4] addresses S. typhimurium OMP synthase (orotate phosphoribosyltransferase) (Salmonella enterica, UniProt P08870, DEL102-102/DEL106-106). Description: biochemical.
The target of series [5] is S. typhimurium OMP synthase (orotate phosphoribosyltransferase) (Salmonella enterica, UniProt P08870, E107A). Nature of the series: biochemical.
The target in series [6] is S. typhimurium OMP synthase (orotate phosphoribosyltransferase) (Salmonella enterica, UniProt P08870, K103A). Description: biochemical.
In series [7] the target is S. typhimurium OMP synthase (orotate phosphoribosyltransferase) (Salmonella enterica, UniProt P08870, D104A). Nature of the series: biochemical.
Substrate in series [8]: O=C(O)c1cc(=O)[nH]c(=O)[nH]1
Nature of the series: purified protein. Format: biochemical, Salmonella enterica. The following applies: 1 mM PRPP, 6 mM MgCl2, 75 mM Tris-Cl, pH 8.0, 30°C.

Substrate in series [9]: O=P(O)(O)OC[C@H]1O[C@H](OP(=O)(O)OP(=O)(O)O)[C@H](O)[C@@H]1O
Nature of the series: purified protein. The note with it: 300 μM orotate, 6 mM MgCl2, 75 mM Tris-Cl, pH 8.0, 30°C. Format: biochemical, Salmonella enterica.

Substrate in series [10]: O=C(O)c1cc(=O)[nH]c(=O)n1[C@@H]1O[C@H](COP(=O)(O)O)[C@@H](O)[C@H]1O
Description: purified protein. The note with it: 2 mM PPi, 3 mM MgCl2, 80 mM Tris-Cl, pH 8.0, 30°C.

Substrate in series [11]: O=P(O)(O)OP(=O)(O)O
Description: purified protein. The following applies: 100 μM OMP, 3 mM MgCl2, 80 mM Tris-Cl, pH 8.0, 30°C.

As to `O=C(O)c1cc(=O)[nH]c(=O)n1[C@@H]1O[C@H](COP(=O)(O)O)[C@@H](O)[C@H]1O` [OMP], the Kd (commonly the equilibrium constant for the complex coming apart) in [1] stood at 3.1 ± 0.1 µM; in series [2] it was 12 ± 2 µM; in series [3], 4 ± 0.3 µM; in series [4] it was 2 ± 0.1 µM; in series [5], 6.5 ± 0.8 µM; in series [6], 3 ± 0.1 µM.

`O=C(O)c1cc(=O)[nH]c(=O)[nH]1` [Orotate] yielded a Kd in [1] of 280 ± 30 µM.

As to `O=P(O)(O)OC[C@H]1O[C@H](OP(=O)(O)OP(=O)(O)O)[C@H](O)[C@@H]1O` [PRPP], the Kd in series [1] was 33 ± 0.5 µM; in series [7], 13 ± 0.7 µM; in series [2], 36 ± 3 µM; in series [3] it was 92 ± 11 µM; in series [5], 7.1 ± 0.5 µM; in [6] it was 125 ± 11 µM.

B1: S. typhimurium OMP synthase (orotate phosphoribosyltransferase) (Salmonella enterica subsp. enterica serovar Typhimurium str. LT2) (protein)
chain: KPYQRQFIEFALNKQVLKFGEFTLKSGRKSPYFFNAGLFNTGRDLALLGRFYAEALVDSGIEFDLLFGPAYKGIPIATTTAVALAEHHDKDLPYCFNRKEAKDHGEGGSLVGSALQGRVMLVDDVITAGTAIRESMEIIQAHGATLAGVLISLDRQERGRGEISAIQEVERDYGCKVISIITLKDLIAYLEEKPDMAEHLAAVRAYREEFGV
Consider B1, for which the Km (as a rule, the concentration of substrate that gives half-maximal velocity) in series [8] amounted to 19 ± 3 µM; in series [9], 18 ± 5 µM; in series [10], 3 ± 0.3 µM; in series [11], 31 ± 3 µM. Further, the values for the kcat in [8], in series [9] and in series [11] were 56 ± 2.5 s⁻¹, 56 ± 2.5 s⁻¹ and 18 ± 0.3 s⁻¹, respectively. Besides, the results for the catalytic efficiency (kcat/Km) in series [8], in series [9] and in [11] were 3e+06 M⁻¹ s⁻¹, 3.1e+06 M⁻¹ s⁻¹ and 580000 M⁻¹ s⁻¹, respectively.

Values taken from PMC3436960 (Biochemistry, 2012).
